Read-outs that look alike come from different tables or passages of the source. Bridge positions count the residues as written; N and C are the ends. Square brackets hold non-standard residues; d marks the D form. Peptide text beside a SMILES is read from it. R8 = C=CCCCCCC[C@@](C)(N)C(=O)O; S5 = C=CCCC[C@](C)(N)C(=O)O; Nle = CCCC[C@H](N)C(=O)O; Aib = CC(C)(N)C(=O)O
Assays:
[1] = Circular dichroism (CD) analysis of alpha-helicity; type: physicochemical; conditions: difference 50% TFE minus benign
Description: Peptide solutions were analyzed by CD spectroscopy using a spectropolarimeter. A temperature controller was used to maintain temperature control of the optical cell. Results are expressed as mean molar ellipticity [θ] (deg cm^2 dmol^−1) as calculated from the equation [θ]=θobs·MRW/10*l*c where θobs is the observed ellipticity in millidegrees, MRW is the mean residue weight of the peptide (peptide molecular weight/number of residues), 1 is the optical path length of the cell in centimeters, and c is the peptide concentration in mg/ml. Peptide concentrations were determined by amino acid analysis. Stock solutions of peptides were prepared in benign CD buffer (20 mM phosphoric acid, pH 2). The stock solutions were used to prepare peptide solutions of 0.05 mg/ml in either benign CD buffer or CD buffer with 50% trifluoroethanol (TFE) for analyses in a 10 mm path length cell. Variable wavelength measurements of peptide solutions were scanned at 4° C. from 195 to 250 nm, in 0.2 nm increments, and a scan rate 50 nm per minute. The average of six scans is reported.

MDM2 = MDM2 (Homo sapiens, UniProt Q00987); experiment: Competitive fluorescence polarization assay for MDM2; type: binding
Sequence of MDM2 (Q00987 1-125): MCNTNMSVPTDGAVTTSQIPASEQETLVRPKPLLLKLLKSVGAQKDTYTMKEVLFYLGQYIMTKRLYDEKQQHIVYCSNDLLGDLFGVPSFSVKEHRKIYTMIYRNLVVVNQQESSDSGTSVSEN

MDMX = target: T1, MDMX (Homo sapiens, UniProt O15151); experiment: Competitive fluorescence polarization assay for MDMX; type: binding
T1 sequence (O15151 1-125): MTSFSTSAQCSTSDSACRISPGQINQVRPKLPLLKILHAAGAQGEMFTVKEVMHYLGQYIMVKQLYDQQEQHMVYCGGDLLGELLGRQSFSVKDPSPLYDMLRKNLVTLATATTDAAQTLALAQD

[2] = competitive fluorescence polarization, MDM2, read-out: Ki (MDM2)
[3] = competitive fluorescence polarization, MDMX, read-out: Ki (MDMX)

CC(=O)N[C@@H](CC(C)C)C(=O)N[C@H](C(=O)N[C@@H](Cc1ccccc1)C(=O)N[C@]1(C)CCCCCCC=CCCC[C@@](C)(C(=O)N[C@@H](C)C(=O)N[C@@H](C)C(=O)N[C@@H](C)C(=O)N[C@H](C)C(N)=O)NC(=O)[C@H](CC(C)C)NC(=O)[C@H](CCC(N)=O)NC(=O)[C@H](C)NC(=O)[C@H](Cc2c[nH]c3ccccc23)NC(=O)[C@H](Cc2ccc(O)cc2)NC(=O)[C@H](C)NC1=O)[C@@H](C)O (single isomer, unassigned) [compound 230]
Molar Ellipticity TFE-Molar Ellipticity Benign [1]: −17760.8 deg cm^2 dmol^−1

CC(=O)N[C@@H](CC(C)C)C(=O)N[C@H](C(=O)N[C@@H](Cc1ccccc1)C(=O)N[C@]1(C)CCCCCCC=CCCC[C@@](C)(C(=O)N[C@@H](CO)C(=O)N[C@@H](C)C(=O)N[C@@H](Cc2ccccc2)C(N)=O)NC(=O)[C@H](CC(C)C)NC(=O)[C@H](CCC(N)=O)NC(=O)[C@H](C)NC(=O)[C@H](Cc2c[nH]c3ccccc23)NC(=O)[C@H](Cc2ccc(O)cc2)NC(=O)[C@H](C)NC1=O)[C@@H](C)O [compound 7] (Ac-LTF[R8]AYWAQL[S5]SAF-NH2; staple 4-11)
Molar Ellipticity TFE-Molar Ellipticity Benign [1]: −20045.4 deg cm^2 dmol^−1

CC(=O)N[C@@H](CC(C)C)C(=O)N[C@H](C(=O)N[C@@H](Cc1ccccc1)C(=O)N[C@]1(C)CCCCCCC=CCCC[C@@](C)(C(=O)N[C@@H](CO)C(=O)N[C@@H](C)C(=O)N[C@@H](C)C(N)=O)NC(=O)[C@H](CC(C)C)NC(=O)[C@H](CCC(N)=O)NC(=O)[C@H](C)NC(=O)[C@H](Cc2c[nH]c3ccccc23)NC(=O)[C@H](Cc2ccc(O)cc2)NC(=O)[C@H](C)NC1=O)[C@@H](C)O [compound 11] (Ac-LTF[R8]AYWAQL[S5]SAA-NH2; staple 4-11)
Molar Ellipticity TFE-Molar Ellipticity Benign [1]: 16225.2 deg cm^2 dmol^−1

CCCC[C@H](NC(=O)[C@H](CCC(N)=O)NC(=O)[C@H](CCC(N)=O)NC(=O)[C@]1(C)CCCC=CCCCCCC[C@@](C)(NC(=O)[C@H](Cc2ccccc2)NC(C)=O)C(=O)N[C@@H](C)C(=O)N[C@@H](Cc2ccc(O)cc2)C(=O)N[C@@H](Cc2c[nH]c3ccccc23)C(=O)N[C@@H]([C@@H](C)O)C(=O)N[C@@H](C)C(=O)N[C@@H](CC(C)C)C(=O)N1)C(=O)N[C@@H](C(N)=O)C(C)C [compound 41] (Ac-F[R8]AYWTAL[S5]QQ[Nle][dV]-NH2; staple 2-9)
Molar Ellipticity TFE-Molar Ellipticity Benign [1]: 20410.4 deg cm^2 dmol^−1

CC(=O)N[C@@H](CC(C)C)C(=O)N[C@H](C(=O)N[C@@H](Cc1ccccc1)C(=O)N[C@]1(C)CCCCCCC=CCCC[C@@](C)(C(=O)N[C@@H](Cc2c[nH]cn2)C(=O)N[C@@H](Cc2c[nH]cn2)C(=O)N[C@@H](CC(C)C)C(=O)N[C@H](C)C(N)=O)NC(=O)[C@H](CC(C)C)NC(=O)[C@H](CCC(N)=O)NC(=O)[C@H](C)NC(=O)[C@H](Cc2c[nH]c3ccccc23)NC(=O)[C@H](Cc2ccc(O)cc2)NC(=O)[C@H](C)NC1=O)[C@@H](C)O [compound 43] (Ac-LTF[R8]AYWAQL[S5]HHL[dA]-NH2; staple 4-11)
Molar Ellipticity TFE-Molar Ellipticity Benign [1]: 2912.9 deg cm^2 dmol^−1

CCCC[C@H](NC(=O)[C@H](C)NC(=O)[C@H](C)NC(=O)[C@]1(C)CCC/C=C/CCCCCC[C@@](C)(NC(=O)[C@H](Cc2ccccc2)NC(=O)[C@@H](NC(=O)[C@H](CC(C)C)NC(C)=O)[C@@H](C)O)C(=O)N[C@@H](C)C(=O)N[C@@H](Cc2ccc(O)cc2)C(=O)N[C@@H](Cc2c[nH]c3ccccc23)C(=O)N[C@@H](C)C(=O)N[C@@H](CCC(N)=O)C(=O)N[C@@H](CC(C)C)C(=O)N1)C(=O)N[C@@H](C)C(N)=O [compound 69]
Molar Ellipticity TFE-Molar Ellipticity Benign [1]: −21407.1 deg cm^2 dmol^−1

CC[C@H](C)[C@H](NC(=O)[C@H](C)NC(=O)[C@H](C)NC(=O)[C@]1(C)CCC/C=C/CCCCCC[C@@](C)(NC(=O)[C@H](Cc2ccccc2)NC(=O)[C@@H](NC(=O)[C@H](CC(C)C)NC(C)=O)[C@@H](C)O)C(=O)N[C@@H](C)C(=O)N[C@@H](Cc2ccc(O)cc2)C(=O)N[C@@H](Cc2c[nH]c3ccccc23)C(=O)N[C@@H](C)C(=O)N[C@@H](CCC(N)=O)C(=O)N[C@@H](CC(C)C)C(=O)N1)C(=O)N[C@H](C)C(N)=O [compound 71]
Molar Ellipticity TFE-Molar Ellipticity Benign [1]: −17835.9 deg cm^2 dmol^−1

CC(=O)N[C@@H](CC(C)C)C(=O)N[C@H](C(=O)N[C@@H](Cc1ccc(F)c(F)c1)C(=O)N[C@]1(C)CCCCCC/C=C/CCC[C@@](C)(C(=O)N[C@@H](CO)C(=O)N[C@@H](C)C(=O)N[C@@H](C)C(N)=O)NC(=O)[C@H](CCC(C)C)NC(=O)[C@H](CCC(N)=O)NC(=O)[C@H](C)NC(=O)[C@H](Cc2c[nH]c3ccccc23)NC(=O)[C@H](Cc2ccc(O)cc2)NC(=O)[C@H](CCC(=O)O)NC1=O)[C@@H](C)O [compound 160]
IC50 (MDM2; competitive fluorescence polarization, MDM2, read-out: IC50 (MDM2)): […] | Ki (MDM2; [2]): […] | IC50 (MDMX; competitive fluorescence polarization, MDMX, read-out: IC50 (MDMX)): 0.1 to 1 µM | Ki (MDMX; [3]): 0.01 to 0.1 µM

CC(=O)N[C@@H](CC(C)C)C(=O)N[C@H](C(=O)N[C@@H](Cc1ccccc1)C(=O)N[C@]1(C)CCCCCCC=CCCC[C@@](C)(C(=O)N[C@@H](C)C(=O)N[C@@H](C)C(=O)N[C@@H](C)C(=O)N[C@@H](C)C(=O)N[C@H](C)C(N)=O)NC(=O)[C@H](CC(C)C)NC(=O)[C@H](CCC(N)=O)NC(=O)[C@H](C)NC(=O)[C@H](Cc2c[nH]c3ccccc23)NC(=O)[C@H](Cc2ccc(O)cc2)NC(=O)[C@H](C)NC1=O)[C@@H](C)O [compound 233]
Molar Ellipticity TFE-Molar Ellipticity Benign [1]: −18554.7 deg cm^2 dmol^−1

CC(C)C[C@H](NC(=O)CN(C)C)C(=O)N[C@H](C(=O)N[C@@H](Cc1ccccc1)C(=O)N[C@]1(C)CCCCCC/C=C/CCC[C@@](C)(C(=O)N[C@@H](C)C(=O)N[C@@H](C)C(=O)N[C@@H](C)C(=O)N[C@@H](C)C(=O)N[C@@H](C)C(=O)N[C@H](C)C(N)=O)NC(=O)[C@H](CC(C)C)NC(=O)[C@H](CCC(N)=O)NC(=O)[C@H](C)NC(=O)[C@H](Cc2c[nH]c3ccccc23)NC(=O)[C@H](Cc2ccc(O)cc2)NC(=O)[C@H](C)NC1=O)[C@@H](C)O [compound 437]
IC50 (MDM2): 0.01 to 0.1 µM | Ki (MDM2): < 0.01 µM | IC50 (MDMX): 0.01 to 0.1 µM | Ki (MDMX): 0.01 to 0.1 µM

CC(=O)N[C@@H](CC(C)C)C(=O)N[C@H](C(=O)N[C@@H](Cc1ccccc1)C(=O)N[C@]1(C)CCCCCC/C=C/CCC[C@@](C)(C(=O)N[C@@H](C)C(=O)N[C@@H](C)C(=O)N[C@@H](C)C(=O)N[C@@H](C)C(=O)N[C@@H](C)C(=O)N[C@H](C)C(N)=O)NC(=O)[C@H](CC(C)C)NC(=O)[C@H](CCC(N)=O)NC(=O)[C@H](C)NC(=O)[C@H](Cc2c[nH]c3cc(Cl)ccc23)NC(=O)[C@H](Cc2ccc(O)cc2)NC(=O)[C@H](CCC(=O)O)NC1=O)[C@@H](C)O [compound 555]
Ki (MDM2): < 0.01 µM | Ki (MDMX): 0.01 to 0.1 µM

CC(=O)N[C@@H](CC(C)C)C(=O)N[C@H](C(=O)N[C@@H](Cc1ccc(F)c(F)c1)C(=O)N[C@]1(C)CCCCCC/C=C/CCC[C@@](C)(C(=O)N[C@@H](C)C(=O)N[C@@H](C)C(=O)N[C@@H](C)C(=O)N[C@@H](C)C(=O)N[C@@H](C)C(=O)N[C@H](C)C(N)=O)NC(=O)[C@H](CC(C)C)NC(=O)[C@H](CCC(N)=O)NC(=O)[C@H](C)NC(=O)[C@H](Cc2c[nH]c3ccccc23)NC(=O)[C@H](Cc2ccc(O)cc2)NC(=O)[C@H](CCC(=O)O)NC1=O)[C@@H](C)O [compound 558]
Ki (MDM2): 0.01 to 0.1 µM | Ki (MDMX): 0.01 to 0.1 µM

CC(=O)N[C@@H](CC(C)C)C(=O)N[C@H](C(=O)N[C@@H](Cc1ccccc1)C(=O)N[C@]1(C)CCCCCC/C=C/CCC[C@@](C)(C(=O)N[C@@H](C)C(=O)N[C@@H](C)C(=O)N[C@@H](C)C(=O)NC(C)(C)C(=O)N[C@@H](C)C(=O)N[C@H](C)C(N)=O)NC(=O)[C@H](CC(C)C)NC(=O)[C@H](CCC(N)=O)NC(=O)[C@H](C)NC(=O)[C@H](Cc2c[nH]c3ccccc23)NC(=O)[C@H](Cc2ccc(O)cc2)NC(=O)[C@H](CCC(=O)O)NC1=O)[C@@H](C)O [compound 564] (Ac-LTF[R8]EYWAQL[S5]AAA[Aib]A[dA]-NH2; staple (E) 4-11)
Ki (MDM2; [2]): < 0.01 µM | Ki (MDMX; [3]): 0.01 to 0.1 µM

CC(=O)N[C@@H](CC(C)C)C(=O)N[C@H](C(=O)N[C@@H](Cc1ccccc1)C(=O)N[C@]1(C)CCCCCC/C=C/CCC[C@@](C)(C(=O)N[C@@H](C)C(=O)N[C@@H](C)C(=O)N[C@@H](C)C(=O)N[C@@H](C)C(=O)N[C@@H](C)C(=O)NC(C)(C)C(N)=O)NC(=O)[C@H](CC(C)C)NC(=O)[C@H](CCC(N)=O)NC(=O)[C@H](C)NC(=O)[C@H](Cc2c[nH]c3ccccc23)NC(=O)[C@H](Cc2ccc(O)cc2)NC(=O)[C@H](CCC(=O)O)NC1=O)[C@@H](C)O [compound 567]
Ki (MDM2; [2]): < 0.01 µM | Ki (MDMX; [3]): 0.01 to 0.1 µM

CC(=O)N[C@@H](CC(C)C)C(=O)N[C@H](C(=O)N[C@@H](Cc1ccccc1)C(=O)N[C@]1(C)CCCCCC/C=C/CCC[C@@](C)(C(=O)N[C@@H](C)C(=O)N[C@@H](C)C(=O)N[C@@H](C)C(=O)N[C@@H](C)C(=O)N[C@@H](C)C(=O)N(C)CC(N)=O)NC(=O)[C@H](CC(C)C)NC(=O)[C@H](CCC(N)=O)NC(=O)[C@H](C)NC(=O)[C@H](Cc2c[nH]c3ccccc23)NC(=O)[C@H](Cc2ccc(O)cc2)NC(=O)[C@H](CCC(=O)O)NC1=O)[C@@H](C)O [compound 578]
Ki (MDM2; [2]): < 0.01 µM | Ki (MDMX; [3]): 0.01 to 0.1 µM
